{"source": "ChEMBL document CHEMBL1201862", "about": "“PubChem BioAssay data set” (2004)", "key": {"cells": {"assay": "cells", "assay_type": "functional"}, "[1]": {"target": "Benomyl/methotrexate resistance protein (Candida albicans, UniProt P28873)", "sequence (P28873 whole entry)": "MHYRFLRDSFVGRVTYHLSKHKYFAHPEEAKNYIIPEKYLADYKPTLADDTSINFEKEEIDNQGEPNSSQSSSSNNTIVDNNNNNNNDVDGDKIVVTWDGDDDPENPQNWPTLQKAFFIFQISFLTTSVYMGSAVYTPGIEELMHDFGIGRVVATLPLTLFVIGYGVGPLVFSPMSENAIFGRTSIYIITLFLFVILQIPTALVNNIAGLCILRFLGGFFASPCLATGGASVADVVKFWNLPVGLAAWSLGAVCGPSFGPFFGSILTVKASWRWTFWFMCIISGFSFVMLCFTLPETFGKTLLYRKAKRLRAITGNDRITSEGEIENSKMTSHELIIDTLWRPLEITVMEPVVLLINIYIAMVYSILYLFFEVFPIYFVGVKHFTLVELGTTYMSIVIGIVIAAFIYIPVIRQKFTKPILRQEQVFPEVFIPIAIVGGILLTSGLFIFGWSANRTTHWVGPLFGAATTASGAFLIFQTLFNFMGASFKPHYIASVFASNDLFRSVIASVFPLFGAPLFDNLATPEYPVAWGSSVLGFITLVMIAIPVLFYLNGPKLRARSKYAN", "assay": "CaMdr1 efflux pump inhibitor potency, dose response, singleplex, Cherry Pick1 hits (AID 588608)", "assay_type": "functional"}, "[2]": {"target": "T1, Multidrug resistance protein CDR2 (Candida albicans (strain SC5314 / ATCC MYA-2876) (Yeast), UniProt P78595)", "T1 sequence (P78595 whole entry)": "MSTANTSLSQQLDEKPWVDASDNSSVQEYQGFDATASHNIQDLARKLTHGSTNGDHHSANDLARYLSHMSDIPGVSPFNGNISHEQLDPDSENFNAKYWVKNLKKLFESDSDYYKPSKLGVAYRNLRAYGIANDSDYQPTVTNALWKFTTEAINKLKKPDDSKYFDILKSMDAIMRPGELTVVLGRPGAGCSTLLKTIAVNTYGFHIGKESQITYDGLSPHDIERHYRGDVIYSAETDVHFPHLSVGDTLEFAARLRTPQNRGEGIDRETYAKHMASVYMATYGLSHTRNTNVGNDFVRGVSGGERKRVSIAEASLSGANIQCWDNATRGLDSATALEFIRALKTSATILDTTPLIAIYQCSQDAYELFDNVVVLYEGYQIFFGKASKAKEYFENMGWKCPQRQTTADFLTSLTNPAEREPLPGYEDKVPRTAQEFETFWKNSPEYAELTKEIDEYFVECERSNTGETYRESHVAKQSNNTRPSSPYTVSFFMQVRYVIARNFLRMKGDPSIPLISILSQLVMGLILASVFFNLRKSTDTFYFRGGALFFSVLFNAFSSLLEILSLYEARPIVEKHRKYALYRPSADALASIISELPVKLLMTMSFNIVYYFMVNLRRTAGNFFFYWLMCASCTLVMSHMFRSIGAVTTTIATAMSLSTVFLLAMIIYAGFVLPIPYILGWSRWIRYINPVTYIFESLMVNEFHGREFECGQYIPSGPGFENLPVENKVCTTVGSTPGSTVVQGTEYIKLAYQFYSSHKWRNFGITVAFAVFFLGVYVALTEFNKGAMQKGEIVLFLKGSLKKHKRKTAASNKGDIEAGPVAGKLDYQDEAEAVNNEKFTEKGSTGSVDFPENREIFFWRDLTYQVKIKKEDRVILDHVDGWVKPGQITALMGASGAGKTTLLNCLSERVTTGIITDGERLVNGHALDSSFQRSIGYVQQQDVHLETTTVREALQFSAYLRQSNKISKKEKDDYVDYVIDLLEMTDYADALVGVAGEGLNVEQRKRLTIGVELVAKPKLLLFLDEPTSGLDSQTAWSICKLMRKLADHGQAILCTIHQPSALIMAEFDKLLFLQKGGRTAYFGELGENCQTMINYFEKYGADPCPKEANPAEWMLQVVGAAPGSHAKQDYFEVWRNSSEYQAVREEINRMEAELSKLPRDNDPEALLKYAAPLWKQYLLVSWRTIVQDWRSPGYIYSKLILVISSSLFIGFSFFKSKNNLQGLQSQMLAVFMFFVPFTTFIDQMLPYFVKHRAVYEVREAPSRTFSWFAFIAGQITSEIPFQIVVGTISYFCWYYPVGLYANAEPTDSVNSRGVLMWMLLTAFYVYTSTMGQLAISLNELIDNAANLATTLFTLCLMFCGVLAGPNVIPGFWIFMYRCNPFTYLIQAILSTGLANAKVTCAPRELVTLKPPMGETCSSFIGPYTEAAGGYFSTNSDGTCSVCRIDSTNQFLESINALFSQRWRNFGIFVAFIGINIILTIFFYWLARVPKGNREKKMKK", "assay": "CaCDR2 efflux pump inhibitors in yeast, dose response, S. cerevisiae AD1-8u, singleplex, Cherry Pick1 hits (AID 588604)", "assay_type": "functional"}, "[3]": {"target": "Induced myeloid leukemia cell differentiation protein Mcl-1 (Homo sapiens, UniProt Q07820)", "sequence (Q07820 whole entry)": "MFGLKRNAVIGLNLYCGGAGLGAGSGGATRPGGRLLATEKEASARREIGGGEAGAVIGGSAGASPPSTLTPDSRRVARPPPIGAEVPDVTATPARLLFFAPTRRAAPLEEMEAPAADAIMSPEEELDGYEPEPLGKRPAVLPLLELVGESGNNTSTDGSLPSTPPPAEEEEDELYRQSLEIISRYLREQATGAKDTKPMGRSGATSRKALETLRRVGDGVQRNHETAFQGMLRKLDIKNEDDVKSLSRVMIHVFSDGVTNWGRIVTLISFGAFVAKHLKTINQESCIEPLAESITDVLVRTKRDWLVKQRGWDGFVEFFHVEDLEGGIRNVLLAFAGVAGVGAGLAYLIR", "assay_type": "functional"}, "[4]": {"target": "T2, Probable nicotinate-nucleotide adenylyltransferase (Staphylococcus aureus (strain N315), UniProt P65502)", "T2 sequence (P65502 whole entry)": "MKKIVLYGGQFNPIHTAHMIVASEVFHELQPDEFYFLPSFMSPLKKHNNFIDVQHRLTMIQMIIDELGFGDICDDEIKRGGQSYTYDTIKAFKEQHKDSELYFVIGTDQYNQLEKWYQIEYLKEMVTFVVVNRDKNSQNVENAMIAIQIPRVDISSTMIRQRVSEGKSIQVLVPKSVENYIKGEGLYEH", "assay_type": "functional, Staphylococcus aureus subsp. aureus N315"}, "[5]": {"target": "T2, Probable nicotinate-nucleotide adenylyltransferase", "assay_type": "functional, Staphylococcus aureus subsp. aureus N315", "settings": "read-out: IC50_Mean"}, "[6]": {"assay": "ARNT/TACC3 interaction disruptors, potency, confirmation, biochemical, AlphaScreen, cherry-picked samples (AID 651703);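 note: His-tagged ARNT PAS-B domain paired with GST-TACC3 E629A dimer coactivator fragment; potency of inhibitors that break up the complex and lower AlphaScreen signal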", "assay_type": "functional, Homo sapiens"}, "[7]": {"target": "DNA dC->dU-editing enzyme APOBEC-3G (Homo sapiens, UniProt Q9HC16)", "sequence (Q9HC16 whole entry)": "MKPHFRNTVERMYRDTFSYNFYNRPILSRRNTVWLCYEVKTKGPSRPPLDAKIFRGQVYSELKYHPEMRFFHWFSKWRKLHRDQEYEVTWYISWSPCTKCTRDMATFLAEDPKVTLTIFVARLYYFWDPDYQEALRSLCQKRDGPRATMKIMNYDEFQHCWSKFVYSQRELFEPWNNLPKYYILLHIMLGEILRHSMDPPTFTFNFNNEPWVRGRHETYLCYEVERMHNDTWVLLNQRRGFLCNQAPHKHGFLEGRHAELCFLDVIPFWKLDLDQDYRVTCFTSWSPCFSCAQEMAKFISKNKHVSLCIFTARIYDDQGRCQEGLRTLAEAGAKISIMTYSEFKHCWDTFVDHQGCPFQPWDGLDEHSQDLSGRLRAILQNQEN", "assay": "APOBEC3G deaminase inhibitors, SAR follow-up, biochemical, fluorescence, single-stranded DNA substrate (AID 602136)", "assay_type": "functional", "settings": "read-out: IC50_Mean"}, "[8]": {"target": "DNA dC->dU-editing enzyme APOBEC-3A (Homo sapiens, UniProt P31941)", "sequence (P31941 whole entry)": "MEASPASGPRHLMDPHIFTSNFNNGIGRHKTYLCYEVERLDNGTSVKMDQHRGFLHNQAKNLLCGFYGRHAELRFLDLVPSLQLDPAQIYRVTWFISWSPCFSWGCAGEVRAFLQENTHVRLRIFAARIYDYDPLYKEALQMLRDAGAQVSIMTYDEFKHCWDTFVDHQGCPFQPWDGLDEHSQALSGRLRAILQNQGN", "assay": "SAR analysis of small molecule inhibitors of APOBEC3A DNA Deaminase via a fluorescence-based single-stranded DNA deaminase assay.", "assay_type": "functional", "settings": "read-out: IC50_Mean"}}, "note": "Active and inactive are the calls of the source.", "data": [{"compound": "COc1ccc(CCOC(=O)c2ccc(N)c([N+](=O)[O-])c2)cc1", "values": [{"measurement": "IC50", "setting": "cells", "result": "21 µM (active)"}, {"measurement": "EC50", "setting": "[1]", "result": "11 nM (active)"}, {"measurement": "EC50", "setting": "[2]", "result": "4.29 µM (active)"}]}, {"compound": "COc1ccc(/C=C2\\SC(=O)N(CCC(=O)Nc3ccc(S(=O)(=O)Nc4nccs4)cc3)C2=O)cc1", "values": [{"measurement": "IC50", "setting": "[3]", "result": "3.11 µM (active)"}, {"measurement": "IC50", "setting": "[4]", "result": "15.2 µM (active)"}, {"measurement": "IC50", "setting": "[5]", "result": "73.1 µM (active)"}]}, {"compound": "O=C(N/N=C1/CCS(=O)(=O)c2ccc(F)cc21)c1ccccn1", "values": [{"measurement": "AC50", "setting": "[6]", "result": "78.4 µM (active)"}]}, {"compound": "Cc1ccc(-c2nnc(SC(C)C(=O)NCc3ccco3)n2C)cc1", "note": "(centres undefined)", "values": [{"measurement": "IC50", "setting": "[7]", "result": "> 99 µM (inactive)"}, {"measurement": "IC50", "setting": "[8]", "result": "> 99 µM (inactive)"}]}]}
